The values below come from ChEMBL document CHEMBL1201862, “PubChem BioAssay data set” (2004).

Structures are written as SMILES.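 Following 48 hours of exposure in 96-well plates, responses at five concentrations were used to interpolate endpoints linearly. Here, GI50 denotes the concentration required for 50% inhibition of growth.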 Active and inactive are the calls of the source. Rule as the data show it: active = GI50 up to about 1.1 µM and inactive = higher.

Some test systems named below: HCT-116; Hs-578T; MCF7; Malme-3M; LOX IMVI; HL-60; UACC-62; MOLT-4; RXF 393; ACHN; RPMI-8226; HT-29; T47D; U-251; PC-3; SNB-75; HOP-62; OVCAR-3; NCI-H23.
Holding throughout (experiment): inhibition of tumour cell growth, NCI panel, 48 h

Take `N#CCc1nc(-c2cc3ccccc3oc2=O)cs1`: the GI50 was 80.5 µM (inactive) in the test with HCT-116; 56.9 µM (inactive) in the test on Hs-578T; 54.8 µM (inactive) in the test on MCF7; 65.8 µM (inactive) in the test on Malme-3M; 56.9 µM (inactive) with LOX IMVI; 17.5 µM (inactive) with HL-60. Moreover, the GI50 in the test on UACC-62 is 18.7 µM (inactive); in the test on MOLT-4, 16.6 µM (inactive); in the test on RXF 393 it was > 100 µM (inactive); with ACHN it was 42.5 µM (inactive); with RPMI-8226, 33.7 µM (inactive); in the test on HT-29, 54 µM (inactive). Also, the GI50 in the test with T47D is 40.1 µM (inactive); in the test on U-251, > 100 µM (inactive); with PC-3, 29.8 µM (inactive); in the test on SNB-75, 19.1 µM (inactive); in the test with HOP-62 it was 62.7 µM (inactive).

With `CCC1CCC2c3c([nH]c4ccc(C)cc34)C3C(=O)N(N(C)C)C(=O)C3C2C1` (stereo not given), the GI50 with HCT-116 was 7.36 µM (inactive); in the test with Hs-578T it was 4.91 µM (inactive); with MCF7 it was 3.64 µM (inactive); in the test with Malme-3M, 1.02 µM (active); with LOX IMVI, 13.7 µM (inactive); in the test on HL-60, 3.05 µM (inactive). For the same molecule, the GI50 was 17.6 µM (inactive) in the test with UACC-62; 14.5 µM (inactive) with MOLT-4; 8.05 µM (inactive) in the test with RXF 393; 91.2 µM (inactive) in the test with ACHN; 19 µM (inactive) with RPMI-8226; 7.28 µM (inactive) with HT-29. For the same molecule, the GI50 with T47D was 7.93 µM (inactive); with U-251, 19.5 µM (inactive); in the test with PC-3, 6.22 µM (inactive); in the test on OVCAR-3, 0.787 µM (active); in the test on NCI-H23, > 67.3 µM (inactive); in the test with HOP-62, > 27 µM (inactive).

As for `COC(=O)C1=C(C(=O)OC)SC(=C2SCSC3=C2SC(C(=O)OC)=C(C(=O)OC)C32SC3=C(CCCC3)S2)S1`, the GI50 with HCT-116, in the test with Hs-578T, with MCF7, with Malme-3M, in the test on LOX IMVI and in the test with HL-60 was > 100 µM (inactive) throughout. Also, the GI50 in the test with UACC-62 was > 100 µM (inactive); in the test on MOLT-4, > 100 µM (inactive); in the test on RXF 393, 19.4 µM (inactive); in the test on ACHN, 62.2 µM (inactive); with HT-29 it was > 100 µM (inactive); with T47D, > 100 µM (inactive). For the same molecule, the GI50 was 47.6 µM (inactive) with U-251; > 100 µM (inactive) with PC-3; 13.9 µM (inactive) with SNB-75; > 100 µM (inactive) in the test on OVCAR-3; > 100 µM (inactive) in the test on NCI-H23; > 100 µM (inactive) in the test with HOP-62.

For the molecule `Brc1ccc(/N=N/c2ccc3ccccc3n2)cc1`, the GI50 was 12.9 µM (inactive) in the test on HCT-116; 18 µM (inactive) in the test with Hs-578T; 25.6 µM (inactive) in the test with MCF7; 12.8 µM (inactive) in the test with Malme-3M; 18.7 µM (inactive) with HL-60; 15.6 µM (inactive) in the test with UACC-62. For the same molecule, the GI50 was 28.2 µM (inactive) in the test on RXF 393; 13.5 µM (inactive) in the test on ACHN; 18.1 µM (inactive) with RPMI-8226; 47.4 µM (inactive) in the test with HT-29; 22.2 µM (inactive) in the test with T47D; 16.7 µM (inactive) with U-251. Moreover, the GI50 in the test with PC-3 is 22 µM (inactive); in the test on SNB-75, 14.2 µM (inactive); with NCI-H23, 27.8 µM (inactive).

With `O=C1c2c(ccc3c2CCC3)CC12Cc1cc3c(cc1C2)CCC3`, the GI50 in the test on HCT-116 was > 100 µM (inactive); in the test on Hs-578T it was > 100 µM (inactive); with MCF7 it was > 100 µM (inactive); in the test on Malme-3M it was 20.1 µM (inactive); with LOX IMVI it was > 100 µM (inactive); with HL-60, > 100 µM (inactive). In addition, the GI50 in the test on MOLT-4, with RXF 393, in the test with ACHN, in the test on RPMI-8226, in the test with HT-29 and in the test on T47D was > 100 µM (inactive) throughout. Besides, the GI50 with U-251 is 70.3 µM (inactive); with PC-3, > 100 µM (inactive); with SNB-75, 87.7 µM (inactive); in the test with OVCAR-3, > 100 µM (inactive); with NCI-H23, > 100 µM (inactive); in the test with HOP-62 it was > 100 µM (inactive).

Regarding `O=S1(=O)c2ccccc2N2C(c3ccccc3)=NOC2(c2ccccc2)CC1c1ccc(Br)cc1` (stereo not given), the GI50 in the test on HCT-116, in the test on Hs-578T, in the test with MCF7, in the test on Malme-3M, with LOX IMVI and with HL-60 was > 100 µM (inactive) throughout. The GI50 in the test with UACC-62, with MOLT-4, in the test on RXF 393, in the test with ACHN, with HT-29 and in the test with T47D was > 100 µM (inactive) each time. The GI50 in the test with U-251, in the test on PC-3, with SNB-75, in the test with OVCAR-3, with NCI-H23 and in the test on HOP-62 was > 100 µM (inactive) each time.

Consider `O=C(Cc1ccc(O)c(O)c1)NCc1c[nH]c2ccccc12`, for which the GI50 was 32.4 µM (inactive) with HCT-116; > 100 µM (inactive) in the test with Hs-578T; 42 µM (inactive) in the test with MCF7; 23.1 µM (inactive) in the test on Malme-3M; 27 µM (inactive) in the test on HL-60; 20.4 µM (inactive) in the test on MOLT-4. Besides, the GI50 is 29 µM (inactive) in the test with RXF 393; 18.1 µM (inactive) in the test on RPMI-8226; > 100 µM (inactive) in the test on HT-29; > 100 µM (inactive) in the test on T47D; 47.1 µM (inactive) in the test with PC-3; > 100 µM (inactive) in the test on SNB-75. In addition, the GI50 is 42.3 µM (inactive) in the test on OVCAR-3, 39.1 µM (inactive) in the test on NCI-H23 and 17.8 µM (inactive) in the test with HOP-62.

With `CSc1[nH]nc(N)c1C(=O)Nc1ccccc1`, the GI50 with HCT-116, with Hs-578T, in the test on MCF7, in the test with Malme-3M, in the test on LOX IMVI and in the test with HL-60 was > 100 µM (inactive) each time. For the same molecule, the GI50 with UACC-62, in the test with MOLT-4, in the test on RXF 393, in the test with RPMI-8226, in the test on HT-29 and in the test on T47D was > 100 µM (inactive) each time. In addition, the GI50 in the test with U-251, in the test with PC-3, in the test with SNB-75, in the test on OVCAR-3 and with NCI-H23 was > 100 µM (inactive) in each case.

Consider `O=C(Nc1c(Cl)cccc1Cl)c1c(Cl)c(Cl)c(Cl)c(Cl)c1-c1nc2ccccc2[nH]1`, for which the GI50 with HCT-116 was 43.5 µM (inactive); in the test on Hs-578T it was 61.8 µM (inactive); with MCF7, 34.6 µM (inactive); in the test with Malme-3M it was > 100 µM (inactive); with LOX IMVI, 46.8 µM (inactive); in the test on HL-60 it was > 100 µM (inactive). In addition, the GI50 in the test on UACC-62 is 25.4 µM (inactive); in the test on MOLT-4 it was 75.3 µM (inactive); with RXF 393, 18 µM (inactive); in the test on ACHN, 50.1 µM (inactive); in the test with RPMI-8226, 37.2 µM (inactive); in the test with HT-29, 26 µM (inactive). Further, the GI50 with T47D was 28 µM (inactive); in the test with PC-3 it was > 100 µM (inactive); with SNB-75, 0.313 µM (active); in the test on OVCAR-3, 25.4 µM (inactive); in the test on NCI-H23, 76.7 µM (inactive); with HOP-62, 0.0501 µM (active).

Take `O=[N+]([O-])c1ccc2nnnn2c1`: the GI50 in the test with HCT-116 is 4.18 µM (inactive); with Hs-578T it was 5.38 µM (inactive); in the test on MCF7, 24 µM (inactive); in the test on Malme-3M it was 20.9 µM (inactive); in the test with LOX IMVI it was 5.7 µM (inactive); in the test on HL-60, 16 µM (inactive). Further, the GI50 is 13.4 µM (inactive) in the test with UACC-62; 2.62 µM (inactive) in the test with MOLT-4; > 100 µM (inactive) in the test on RXF 393; 10.7 µM (inactive) in the test with ACHN; 16.5 µM (inactive) with HT-29; > 100 µM (inactive) in the test on T47D. The GI50 with U-251 is 23.2 µM (inactive); in the test with PC-3, > 100 µM (inactive); with SNB-75 it was 85.3 µM (inactive); with OVCAR-3, 13.5 µM (inactive); with NCI-H23, 22.6 µM (inactive); in the test with HOP-62, 31 µM (inactive).

On to `CC(NC(=O)c1ccc(NP(=O)(OCc2ccc([N+](=O)[O-])o2)N(C)CCCCCl)cc1)c1ccc(OCC2CCCCC2)c(C(N)=O)c1` (stereo not given), for which the GI50 with HCT-116 was 16.2 µM (inactive); in the test with Hs-578T, 16.3 µM (inactive); in the test on MCF7, 3.15 µM (inactive); with LOX IMVI, 13.7 µM (inactive); in the test with HL-60, 16 µM (inactive); in the test with UACC-62 it was 12.6 µM (inactive). For the same molecule, the GI50 in the test on MOLT-4 is 9.71 µM (inactive); in the test with RXF 393 it was 10.9 µM (inactive); with ACHN it was 29 µM (inactive); in the test with RPMI-8226, 4.86 µM (inactive); in the test on HT-29 it was 18.3 µM (inactive); in the test on T47D, 5.37 µM (inactive). In addition, the GI50 is 19.4 µM (inactive) in the test on U-251; 19.5 µM (inactive) with PC-3; 11 µM (inactive) in the test on SNB-75; 11.6 µM (inactive) with OVCAR-3; 16.9 µM (inactive) in the test with NCI-H23; 16.9 µM (inactive) with HOP-62.
